Test results published in publication PMC8294059, “Identification and Immune Assessment of T Cell Epitopes in Five Plasmodium falciparum Blood Stage Antigens to Facilitate Vaccine Candidate Selection and Optimization” (Frontiers in Immunology, 2021).
pIC50: −log10 of the molar value. Where a SMILES comes first, the peptide text is derived from it.

Tests used:
Assay in all cases: biochemical
Assay type in all cases: binding
HLA-DRB1*0101 = molecular target: T1, HLA-DRB1*0101 (Homo sapiens, UniProt P01903+P01911, A100R/D57E/F55L/F60I/F76Y/I96L/L162R/M171V/P40L/Q125E/R42F/V115G/Y59C); details: binding inhibition assay; NB = non-binder (no dose-dependent inhibition); read-out: DRB1*0101 IC50
T1 construct: purchased
How it was run: (§1)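 Peptides were titrated (final 100,000 nM down to 100 nM) in competition with a labeled reference binder for commercial HLA-DRB1 monomers.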

HLA-DRB1*0401 = molecular target: T2, HLA-DRB1*0401 (Homo sapiens, UniProt P01903+P01911, A100K/A169T/F76Y/I96L/K127E/L162R/M171V/N62H/P40V/Q125Y/R42H/S133A/S149N/S66Y/V115G/V209L/W38E); details: binding inhibition assay; NB = non-binder (no dose-dependent inhibition); read-out: DRB1*0401 IC50
T2 construct: purchased
How it was run: as §1

HLA-DRB1*0701 = HLA-DRB1*0701 (Homo sapiens, UniProt P01903+P01911, A100R/A102G/A103Q/D57E/D86V/E43K/F76Y/K127E/L162R/M171V/P40G/Q125H/Q99D/R33Q/R42Y/R54Q/S133A/S66F/T210M/V115G/Y107V/Y59L/Y89S); details: binding inhibition assay; NB = non-binder (no dose-dependent inhibition); read-out: DRB1*0701 IC50
How it was run: as §1

HLA-DRB1*0801 = HLA-DRB1*0801 (Homo sapiens, UniProt P01903+P01911, A100R/A103L/A169T/D86S/F76Y/H45Y/I96F/K41T/L162R/M171V/P40S/Q125H/Q178H/Q39Y/Q99D/R218S/R42G/S66Y/V115G/W38E); details: binding inhibition assay; NB = non-binder (no dose-dependent inhibition); read-out: DRB1*0801 IC50
How it was run: as §1

HLA-DRB1*1101 = HLA-DRB1*1101 (Homo sapiens, UniProt P01903+P01911, A100R/A169T/A87E/I96F/K41T/L162R/M171V/P40S/Q125H/Q178H/Q39Y/Q99D/R42S/S66Y/T262R/V115G/W38E); details: binding inhibition assay; NB = non-binder (no dose-dependent inhibition); read-out: DRB1*1101 IC50
How it was run: as §1

HLA-DRB1*1301 = HLA-DRB1*1301 (Homo sapiens, UniProt P01903+P01911, A100E/A169T/K41T/L162R/M171V/P40S/Q125H/Q178H/Q39Y/Q99D/R42S/S66N/T262R/W38E/Y61H); details: binding inhibition assay; NB = non-binder (no dose-dependent inhibition); read-out: DRB1*1301 IC50
How it was run: as §1

HLA-DRB1*1501 = molecular target: T3, HLA-DRB1*1501 (Homo sapiens, UniProt P01903+P01911); details: binding inhibition assay; NB = non-binder (no dose-dependent inhibition); read-out: DRB1*1501 IC50
T3 construct: purchased
How it was run: as §1

Sequence of HLA-DRB1*1101 (P01903 26-254 limits assumed, other chains not shown): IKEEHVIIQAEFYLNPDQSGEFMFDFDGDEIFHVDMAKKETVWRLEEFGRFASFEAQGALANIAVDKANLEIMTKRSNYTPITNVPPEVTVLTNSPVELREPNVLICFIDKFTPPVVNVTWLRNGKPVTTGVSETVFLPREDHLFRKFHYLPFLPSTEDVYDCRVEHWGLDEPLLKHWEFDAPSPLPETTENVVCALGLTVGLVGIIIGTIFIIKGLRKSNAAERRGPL

Structure (SMILES)	pIC50 (HLA-DRB1*0101)	pIC50 (HLA-DRB1*0401)	pIC50 (HLA-DRB1*0701)	pIC50 (HLA-DRB1*0801)	pIC50 (HLA-DRB1*1101)	pIC50 (HLA-DRB1*1301)	pIC50 (HLA-DRB1*1501)
CC[C@H](C)[C@H](NC(=O)[C@H](Cc1ccccc1)NC(=O)[C@H](CC(N)=O)NC(=O)[C@@H](NC(=O)[C@H](CC(N)=O)NC(=O)[C@H](CCCCN)NC(=O)[C@@H](NC(=O)[C@H](CC(N)=O)NC(=O)[C@H](CC(N)=O)NC(=O)[C@@H](NC(=O)[C@H](CC(N)=O)NC(=O)[C@H](CC(=O)O)NC(=O)CNC(=O)[C@@H](NC(=O)[C@H](Cc1ccc(O)cc1)NC(=O)[C@H](Cc1ccccc1)NC(=O)[C@@H](N)Cc1c[nH]cn1)C(C)C)[C@@H](C)CC)C(C)C)C(C)C)C(=O)N[C@@H](CCC(=O)O)C(N)=O [CYRPA_005] (H-HFYVGDNINNVKNVNFIE-NH2)	6.74	7.11	6.86	4.93	6.53	6.20	6.91
CC[C@H](C)[C@H](NC(=O)[C@@H](NC(=O)[C@H](C)NC(=O)[C@H](CC(C)C)NC(C)=O)[C@@H](C)O)C(=O)N[C@@H](CC(C)C)C(=O)N[C@@H](CCSC)C(=O)N[C@H](C(=O)N[C@@H](Cc1ccc(O)cc1)C(=O)N[C@@H](CC(C)C)C(=O)N[C@@H](Cc1ccc(O)cc1)C(=O)N[C@@H](CCCCN)C(=O)N[C@@H](CCCNC(=N)N)C(=O)N[C@@H](CCCCN)C(=O)NCC(=O)N[C@@H](CC(N)=O)C(=O)N[C@@H](C)C(=O)N[C@@H](CCC(=O)O)C(=O)N[C@@H](CCCCN)C(=O)N[C@@H](Cc1ccc(O)cc1)C(=O)N[C@@H](CC(=O)O)C(=O)N[C@@H](CCCCN)C(N)=O)C(C)C [AMA1_009] (Ac-LATILMVYLYKRKGNAEKYDK-NH2)	5.00	4.96	5.47	5.10	6.78	5.36	5.61
CC[C@H](C)[C@H](NC(=O)[C@H](CCCCN)NC(=O)[C@H](CCC(=O)O)NC(=O)[C@@H](NC(=O)[C@H](CO)NC(=O)[C@H](CC(=O)O)NC(=O)[C@H](CCCNC(=N)N)NC(=O)[C@H](CC(N)=O)NC(=O)[C@H](CC(C)C)NC(=O)[C@@H](NC(=O)[C@@H](NC(=O)[C@H](Cc1ccc(O)cc1)NC(=O)[C@@H](NC(=O)[C@H](Cc1ccc(O)cc1)NC(=O)[C@H](CCCCN)NC(=O)[C@H](CC(N)=O)NC(=O)[C@H](CC(C)C)NC(=O)[C@H](Cc1ccc(O)cc1)NC(=O)[C@H](C)NC(=O)[C@H](Cc1ccc(O)cc1)NC(=O)[C@H](CC(=O)O)NC(C)=O)C(C)C)[C@@H](C)O)[C@@H](C)CC)[C@@H](C)O)C(=O)N[C@@H](CCCCN)C(=O)N[C@H](C(=O)N[C@@H](Cc1ccccc1)C(N)=O)[C@@H](C)O [RIPR_002] (Ac-DYAYLNKYVYTILNRDSTEKIKTF-NH2)	6.82	4.78	5.16	4.79	5.83	4.30	6.70
CC[C@H](C)[C@H](NC(=O)[C@H](CC(N)=O)NC(=O)[C@H](CC(N)=O)NC(=O)[C@H](CC(C)C)NC(=O)[C@H](Cc1c[nH]cn1)NC(=O)[C@H](CCCCN)NC(C)=O)C(=O)N[C@@H](Cc1ccccc1)C(=O)N[C@@H](Cc1c[nH]cn1)C(=O)N[C@@H](Cc1c[nH]cn1)C(=O)N[C@@H](CC(C)C)C(=O)N[C@H](C(=O)N[C@@H](Cc1ccc(O)cc1)C(=O)N[C@H](C(=O)N[C@@H](CC(C)C)C(=O)N[C@@H](CCC(N)=O)C(=O)N[C@@H](CCSC)C(=O)N[C@@H](CCCCN)C(N)=O)C(C)C)[C@@H](C)CC [RH5_012] (Ac-KHLNNIFHHLIYVLQMK-NH2)	7.60	5.14	4.62	4.04	4.47	5.05	5.11
CC[C@H](C)[C@H](NC(=O)[C@H](CO)NC(=O)[C@@H](NC(=O)[C@@H]1CCCN1C(=O)[C@@H](NC(=O)[C@H](CC(=O)O)NC(C)=O)C(C)C)[C@@H](C)CC)C(=O)N[C@H](C(=O)N[C@@H](CCCNC(=N)N)C(=O)N[C@@H](CC(N)=O)C(=O)N[C@@H](CC(N)=O)C(=O)N[C@@H](CCC(=O)O)C(=O)N[C@@H](CCC(N)=O)C(=O)N[C@H](C(=O)N[C@@H](CO)C(=O)N[C@@H](CCC(N)=O)C(=O)N[C@@H](CCC(=O)O)C(=O)N[C@@H](C)C(N)=O)[C@@H](C)O)[C@@H](C)CC [EBA175_014] (Ac-DVPISIIRNNEQTSQEA-NH2)	5.21	5.42	4.87	4.73	4.78	4.85	5.51
CC[C@H](C)[C@H](NC(=O)[C@H](CC(=O)O)NC(=O)[C@H](Cc1ccc(O)cc1)NC(=O)[C@H](CCC(=O)O)NC(=O)[C@H](CC(N)=O)NC(=O)[C@H](CCCNC(=N)N)NC(=O)[C@H](C)NC(=O)[C@H](CCCCN)NC(=O)[C@H](C)NC(=O)[C@H](Cc1ccccc1)NC(=O)[C@H](Cc1ccc(O)cc1)NC(=O)[C@H](CC(C)C)NC(=O)[C@@H](NC(=O)[C@H](Cc1ccccc1)NC(=O)[C@H](Cc1ccccc1)NC(=O)[C@H](CO)NC(=O)[C@H](C)NC(C)=O)C(C)C)C(=O)N[C@@H](CCCCN)C(N)=O [EBA175_001B] (Ac-ASFFVLYFAKARNEYDIK-NH2)	6.17	5.64	6.38	5.01	6.28	5.65	6.58
CC[C@H](C)[C@H](NC(=O)[C@H](CCCNC(=N)N)NC(=O)[C@H](CO)NC(=O)[C@@H](NC(=O)[C@H](CCCNC(=N)N)NC(=O)[C@@H](NC(=O)[C@H](C)NC(=O)[C@H](CC(N)=O)NC(=O)[C@@H](NC(=O)[C@@H]1CCCN1C(=O)[C@@H](NC(=O)[C@H](Cc1ccc(O)cc1)NC(=O)[C@H](CCCCN)NC(=O)[C@H](CC(N)=O)NC(=O)[C@H](CCC(N)=O)NC(=O)[C@H](CCCCN)NC(C)=O)C(C)C)[C@@H](C)CC)C(C)C)C(C)C)C(=O)N[C@@H](CC(C)C)C(=O)N[C@@H](CO)C(=O)N[C@@H](Cc1ccccc1)C(=O)N[C@@H](CC(C)C)C(=O)N[C@@H](CC(=O)O)C(=O)N[C@@H](CO)C(N)=O [EBA175_004] (Ac-KQNKYVPINAVRVSRILSFLDS-NH2)	8.40	4.74	7.74	5.21	6.40	5.86	5.68
CC[C@H](C)[C@H](NC(=O)[C@H](CCSC)NC(=O)[C@H](Cc1ccc(O)cc1)NC(=O)[C@@H](NC(=O)[C@H](Cc1ccccc1)NC(=O)[C@H](CCC(=O)O)NC(=O)[C@H](Cc1ccccc1)NC(=O)[C@H](C)N)[C@@H](C)O)C(=O)N[C@@H](CC(N)=O)C(=O)N[C@@H](Cc1ccccc1)C(=O)NCC(=O)N[C@@H](CCCNC(=N)N)C(=O)NCC(=O)N[C@@H](CCC(N)=O)C(=O)N[C@@H](CC(N)=O)C(=O)N[C@@H](Cc1ccc(O)cc1)C(=O)N[C@@H](Cc1c[nH]c2ccccc12)C(=O)N[C@@H](CCC(=O)O)C(N)=O [AMA1_002] (H-AFEFTYMINFGRGQNYWE-NH2)	6.93	7.35	6.95	6.62	6.63	6.14	7.12
CC[C@H](C)[C@H](NC(=O)[C@H](CC(N)=O)NC(=O)[C@H](Cc1ccc(O)cc1)NC(=O)[C@H](CC(N)=O)NC(=O)[C@H](CO)NC(=O)[C@H](CC(C)C)NC(=O)[C@H](CCC(=O)O)NC(=O)[C@H](CCCCN)NC(=O)[C@H](Cc1ccccc1)NC(=O)[C@H](Cc1c[nH]cn1)NC(=O)[C@H](Cc1ccc(O)cc1)NC(=O)[C@H](CCC(N)=O)NC(=O)[C@@H](N)CC(C)C)C(=O)N[C@@H](C)C(=O)N[C@@H](CC(N)=O)C(=O)N[C@@H](CO)C(=O)N[C@H](C(=O)N[C@@H](CC(=O)O)C(N)=O)[C@@H](C)CC [RH5_005] (H-LQYHFKELSNYNIANSID-NH2)	7.74	5.54	5.42	4.71	4.95	4.29	7.60
